In patent US20250154109A1, “SODIUM CHANNEL BLOCKING COMPOUNDS, DERIVATIVES THEREOF, AND METHODS OF THEIR USE” (LATIGO BIOTHERAPEUTICS, INC, priority 2022, published 2025):

Assays:
rat plasma protein = experiment: Rat plasma protein binding by equilibrium dialysis; assay type: in vitro ADME; conditions: for Rat Plasma, Unbound %: equilibrium dialysis; for Fold increase vs Comparator (rat plasma unbound): ratio of unbound % sulfoximine / comparator sulfonamide
Text: (§1) Table 3 presents the human and rat plasma protein binding data (% unbound) for the compounds of Table 2.
(§2) Comparator compounds A, B, C have been previously reported as inhibitors of Na, 1.8 in WO2020/092667. Comparator D, not previously reported, is offered as an additional sulfonamido example.

human Nav1.8 [1] = biological target: T1, human Nav1.8 (Homo sapiens, UniProt Q9Y5Y9); experiment: SyncroPatch384PE assay (automated patch clamp); assay type: cell-based; conditions: human Nav1.8/b3 CHO cells
T1 sequence (Q9Y5Y9 whole entry): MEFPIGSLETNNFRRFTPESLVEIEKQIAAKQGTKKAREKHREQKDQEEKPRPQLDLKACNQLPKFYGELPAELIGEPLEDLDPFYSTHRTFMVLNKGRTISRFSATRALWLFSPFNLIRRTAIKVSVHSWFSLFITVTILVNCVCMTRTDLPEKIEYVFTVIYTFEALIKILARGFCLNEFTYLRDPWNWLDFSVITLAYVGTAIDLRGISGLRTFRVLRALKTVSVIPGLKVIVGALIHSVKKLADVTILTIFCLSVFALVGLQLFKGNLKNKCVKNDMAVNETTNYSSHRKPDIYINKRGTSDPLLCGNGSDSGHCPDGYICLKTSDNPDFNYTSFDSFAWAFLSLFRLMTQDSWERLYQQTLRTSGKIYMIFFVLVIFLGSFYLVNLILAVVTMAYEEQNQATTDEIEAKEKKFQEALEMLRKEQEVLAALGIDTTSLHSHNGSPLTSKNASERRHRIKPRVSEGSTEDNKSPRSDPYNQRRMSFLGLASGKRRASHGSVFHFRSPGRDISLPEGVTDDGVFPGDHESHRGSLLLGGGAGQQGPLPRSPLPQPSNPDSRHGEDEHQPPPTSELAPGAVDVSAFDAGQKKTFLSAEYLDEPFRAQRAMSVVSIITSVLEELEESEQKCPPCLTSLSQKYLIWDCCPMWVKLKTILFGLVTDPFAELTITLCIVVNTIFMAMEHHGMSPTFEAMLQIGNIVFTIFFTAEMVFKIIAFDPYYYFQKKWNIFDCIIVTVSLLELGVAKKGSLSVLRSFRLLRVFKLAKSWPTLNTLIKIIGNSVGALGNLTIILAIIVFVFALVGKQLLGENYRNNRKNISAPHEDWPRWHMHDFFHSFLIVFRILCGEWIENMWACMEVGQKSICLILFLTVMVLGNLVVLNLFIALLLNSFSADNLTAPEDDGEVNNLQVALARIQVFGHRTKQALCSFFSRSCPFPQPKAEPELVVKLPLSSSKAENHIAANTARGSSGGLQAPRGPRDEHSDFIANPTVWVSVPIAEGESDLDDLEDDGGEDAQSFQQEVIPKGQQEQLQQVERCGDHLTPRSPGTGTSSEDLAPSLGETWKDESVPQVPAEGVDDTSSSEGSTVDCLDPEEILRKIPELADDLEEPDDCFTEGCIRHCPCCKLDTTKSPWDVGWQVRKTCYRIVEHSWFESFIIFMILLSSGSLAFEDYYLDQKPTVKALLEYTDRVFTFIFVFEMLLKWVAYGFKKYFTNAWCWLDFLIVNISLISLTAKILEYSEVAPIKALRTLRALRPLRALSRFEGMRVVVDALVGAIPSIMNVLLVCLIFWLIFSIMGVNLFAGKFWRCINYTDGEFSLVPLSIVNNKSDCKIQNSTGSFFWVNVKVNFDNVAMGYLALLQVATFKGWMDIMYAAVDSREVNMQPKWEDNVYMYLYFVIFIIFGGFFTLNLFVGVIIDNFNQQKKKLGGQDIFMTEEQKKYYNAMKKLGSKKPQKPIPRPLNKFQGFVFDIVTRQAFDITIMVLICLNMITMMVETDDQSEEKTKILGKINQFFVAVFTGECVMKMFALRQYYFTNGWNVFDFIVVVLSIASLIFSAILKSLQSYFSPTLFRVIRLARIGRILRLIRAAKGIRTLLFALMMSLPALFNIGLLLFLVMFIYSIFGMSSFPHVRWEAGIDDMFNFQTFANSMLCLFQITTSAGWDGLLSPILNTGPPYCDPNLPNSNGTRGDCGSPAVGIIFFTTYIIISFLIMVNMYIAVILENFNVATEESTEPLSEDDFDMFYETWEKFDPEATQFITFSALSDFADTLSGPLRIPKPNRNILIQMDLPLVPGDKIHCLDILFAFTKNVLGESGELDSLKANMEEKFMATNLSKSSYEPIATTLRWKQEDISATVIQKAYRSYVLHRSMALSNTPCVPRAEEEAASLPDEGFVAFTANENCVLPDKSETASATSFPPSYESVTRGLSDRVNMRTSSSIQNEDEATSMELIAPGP

human plasma protein = experiment: Human plasma protein binding by equilibrium dialysis; assay type: in vitro ADME; conditions: for Human Plasma, Unbound %: equilibrium dialysis; for Fold increase vs Comparatror (human plasma unbound): ratio of unbound % sulfoximine / comparator sulfonamide
Text: as §1, §2

human Nav1.8 [2] = biological target: T1, human Nav1.8; experiment: Sophion Qpatch II assay (automated patch clamp); assay type: cell-based; conditions: resting state block (TP1 measurement), human Nav1.8 HEK293 cells, read-out: P1 IC50
Experimental: Compounds were tested on recombinant human Nav1.8/01 stably transfected HEK293 (Eurofins, CYL3025, St. Charles, MO) cells using the Qpatch II system (Sophion Bioscience A/S, Ballerup—Denmark), an automated patch clamp device. Cells were cultured at 37° C./5% CO2 in DMEM/F-12 supplemented with 10% fetal bovine serum, lx Non-Essential Amino Acids, and selection antibiotics (0.625 μg/mL Puromycin, 400 μg/mL Geneticin, and 100 μg/mL Hygromycin). One or two days prior to recording, cells were moved to a lower temperature 30° C./5% CO2 incubator to increase surface expression of the channels. On the day of the recordings, cells in culture dishes were washed twice with Ca^2+—Mg^2+ free DPBS and treated with Detachin (Genlantis, San Diego) for 3 minutes and then resuspended in Serum Free Medium (EX-CELL® ACF CHO Medium for Cell Culture (Sigma-Aldrich) supplemented with 0.04 mg/mL soybean trypsin Inhibitor and 25 mM HEPES (all components supplied by Sigma-Aldrich, St. Louis, MO) and allowed to recover for a minimum of 20 minutes in the onboard Qstirrer. All experiments were performed at ambient temperature. Intracellular solution contained (mM): CsCl, 50; CsF, 90; MgCl2, 2; EGTA, 5; HEPES, 10; pH adjusted to 7.2 with CsOH. Extracellular solution contained (mM): NaCl, 137; KCl, 4; CaCl2), 3.8; MgCl2, 1; HEPES, 10; Glucose, 10; pH adjusted to 7.4 with NaOH. 500 nM tetrodotoxin (TTX) was added to the extracellular solution to block endogenous TTX-sensitive sodium currents.
Compounds were tested in an interleaved manner across two cohorts of wells to develop an aggregate 8-point concentration response curve. Final concentrations include 0.5% DMSO and 0.03% pluronic Acid. The concentration range spanned a range from 0.01-300 nM. Compounds were diluted 1:10 with extracellular solution within their respective cohort. (R)-2-(4-fluoro-2-methylphenoxy)-N-(3-(S-methylsulfonimidoyl)phenyl)-5-(trifluoromethyl)nicotinamide served as a positive control while DMSO (0.5% by volume) served as a vehicle control to ascertain assay performance.
Whole cell patch clamp recordings were conducted according to Sophion standard procedure for Qpatch II®. Cells were held at a holding potential of −120 mV. A depolarizing step to 10 mV for 30 ms was applied (TP1 measurement), followed by a hyperpolarization step to −100 mV for 20 ms. Due to instability observed at long depolarized potentials, there were no second TP2 measurements attempted. Inter-sweep interval was 15 sec. Following establishment of the whole-cell configuration in extracellular solution, cells were washed twice in extracellular solution containing 0.5% DMSO and 0.03% pluronic acid to stabilize the baseline current. Compounds were then applied by the Qpatch II system into each well in an ascending manner within cohort and the current was recorded for five minutes for each concentration. Percent of current remaining was determined by taking the average of the last 5 sweeps within each concentration and normalizing to the latest pre-compound saline period. The potency of the compounds was assessed on resting state block (TP1 measurement) only to obtain IC50 values. Wells whose initial sodium current magnitude were below 2 nA or whole cell resistance fell below 100 MQ were excluded from analysis.
Examples 220 to 224, Examples 237 to 257 and Example 259 are assayed using Sophion Qpatch II assay described above.

[3] = resting state block (P1 measurement), read-out: P1 IC50
[4] = inactivated state block (P2 measurement), read-out: P2 IC50

Rat Plasma, Unbound % (rat plasma protein) | Fold increase vs Comparator (rat plasma unbound) (rat plasma protein) | IC50 (human Nav1.8 [1]; [3]) | Human Plasma, Unbound % (human plasma protein) | Fold increase vs Comparatror (human plasma unbound) (human plasma protein) | IC50 (human Nav1.8 [1]; [4]) | IC50 (human Nav1.8 [2]) | Structure (SMILES)
3.0% | 1.9× | ≤ 5 nM | 1.7% | 3.2× |  |  | Cc1nc(N2CCCC(F)(F)CC2)c(C(=O)Nc2cccc(S(C)(=N)=O)c2)cc1Cl (stereo in doubt) [Example 17, (S)-5-Chloro-2-(4,4-difluoroazepan-1-yl)-6-methyl-N-(3-(S-methylsulfonimidoyl)phenyl)nicotinamide]
0.52% |  |  | 0.24% |  |  |  | Cc1nc(N2CCCC(F)(F)CC2)c(C(=O)Nc2ccnc(S(N)(=O)=O)c2)cc1C(F)(F)F [Compound A, reference compound]
15.8% |  |  | 17.4% |  |  |  | NS(=O)(=O)c1cccc(NC(=O)c2cc(C(F)(F)F)nnc2N2CCCC(F)(F)CC2)c1 [Compound B, reference compound]
1.62% |  |  | 0.53% |  |  |  | Cc1nc(N2CCCC(F)(F)CC2)c(C(=O)Nc2ccnc(S(N)(=O)=O)c2)cc1Cl [Compound C, reference compound]
0.31% |  |  | 0.31% |  |  |  | Cc1nc(N2CCCC(F)(F)CC2)c(C(=O)Nc2cccc(S(N)(=O)=O)c2)cc1C(F)(F)F [Compound D, reference compound]
37.8% | 2.4× |  |  |  |  |  | CS(=N)(=O)c1cccc(NC(=O)c2cc(C(F)(F)F)nnc2N2CCCC(F)(F)CC2)c1 (stereo not shown) [Compound E]
1.9% | 6.1× | ≤ 5 nM | 0.9% | 2.9× | ≤ 5 nM |  | Cc1nc(N2CCCC(F)(F)CC2)c(C(=O)Nc2cccc([S@](C)(=N)=O)c2)cc1C(F)(F)F [Example 4, (R)-2-(4,4-difluoroazepan-1-yl)-6-methyl-N-(3-(S-methylsulfonimidoyl)phenyl)-5-(trifluoromethyl)nicotinamide]
3.55% | 6.8× | ≤ 5 nM | 1.8% | 7.5× | ≤ 5 nM |  | Cc1nc(N2CCCC(F)(F)CC2)c(C(=O)Nc2ccnc(S(C)(=N)=O)c2)cc1C(F)(F)F (stereo not shown) [Example 101, 2-(4,4-difluoroazepan-1-yl)-6-methyl-N-(2-(S-methylsulfonimidoyl)pyridin-4-yl)-5-(trifluoromethyl)nicotinamide]
 |  |  |  |  |  | 5 to 50 nM | C[S@](=N)(=O)c1cccc(NC(=O)c2cc(Cl)c(C(F)(F)F)cc2N2CCC(F)(F)CC2)c1 [Example 255, (S)-5-chloro-2-(4,4-difluoropiperidin-1-yl)-N-(3-(S-methylsulfonimidoyl)phenyl)-4-(trifluoromethyl)benzamide]
 |  |  |  |  |  | 50 to 100 nM | Cc1c(C(F)(F)F)cnc(N2CCCC(F)(F)CC2)c1C(=O)N[C@H]1C[C@H](C(=O)O)C1 [Example 256, (trans)-3-(2-(4,4-difluoroazepan-1-yl)-4-methyl-5-(trifluoromethyl)nicotinamido)cyclobutane-1-carboxylic acid]
 |  |  |  |  |  | 50 to 100 nM | Cc1c(C(F)(F)F)cnc(N2CCCC(F)(F)CC2)c1C(=O)N[C@H]1C[C@H](C(N)=O)C1 [Example 257, N-((trans)-3-carbamoylcyclobutyl)-2-(4,4-difluoroazepan-1-yl)-4-methyl-5-(trifluoromethyl)nicotinamide]
 |  |  |  |  |  | 50 to 100 nM | Cc1c(C(F)(F)F)cnc(N2CCCC(F)(F)CC2)c1C(=O)N[C@H]1C[C@@H](C(N)=O)C1 [Example 259, N-((cis)-3-carbamoylcyclobutyl)-2-(4,4-difluoroazepan-1-yl)-4-methyl-5-(trifluoromethyl)nicotinamide]
